Literature values in patent US20040220135A1 (priority 2003, published 2004).

Tested on: liver metastases
Settings: Gray et al (2001) Annals of Oncology 12: 1711-1720

O=c1[nH]c(=O)n([C@H]2C[C@H](O)[C@@H](CO)O2)cc1F [floxuridine]
Response rate: 17.6% | Time to disease progression: 9.7 months
